Data from patent publication US20110319392A1, “Thiazole Sulfonamide And Oxazole Sulfonamide Kinase Inhibitors” (priority 2009, published 2011).

Test system: BT474 tumor cells
Test: Cell growth inhibition assay (CellTiter-Glo), BT474
Format: cell-based, Human
Conditions: Homo sapiens, BT-474, 72 h, 3 days incubation

IC50 [µM]	SMILES
> 1	CC(C)c1nc(-c2cc(F)cc(NS(=O)(=O)c3c(F)cccc3F)c2)c(-c2ccnc(Nc3ccc(N4CCOCC4)nc3)n2)s1 [Example 84]
> 1	CCc1nc(-c2cccc(NS(=O)(=O)c3ccccc3)c2)c(-c2ccnc(Nc3ccc(N4CCN(C(C)=O)CC4)nc3)n2)s1 [Example 3, N-{3-[5-(2-{[6-(4-Acetyl-1-piperazinyl)-3-pyridinyl]amino}-4-pyrimidinyl)-2-ethyl-1,3-thiazol-4-yl]phenyl}benzenesulfonamide]
> 1	CC(C)c1nc(-c2cccc(NS(=O)(=O)c3c(F)cccc3F)c2)c(-c2ccnc(Nc3ccc(N4CCCNCC4)nc3)n2)s1 [Example 82]
> 1	CC(C)c1nc(-c2cccc(NS(=O)(=O)c3ccccc3)c2)c(-c2ccnc(Nc3ccc(N4CCOCC4)cn3)n2)s1 [Example 92]
> 1	CCc1nc(-c2cccc(NS(=O)(=O)c3ccccc3)c2)c(-c2ccnc(Nc3ccc(N4CCOCC4)c(F)c3)n2)s1 [Example 4]
> 1	CC(C)c1nc(-c2cccc(NS(=O)(=O)c3c(F)cccc3F)c2)c(-c2ccnc(Nc3ccc(N4CCN(C(C)C)CC4)cc3O)n2)s1 [Example 78]
> 1	CC(C)c1nc(-c2cccc(NS(=O)(=O)c3c(F)cccc3F)c2)c(-c2ccnc(Nc3ccc(N4CCCN(CCS(C)(=O)=O)CC4)nc3)n2)s1 [Example 88]
> 1	CC(C)c1nc(-c2cccc(NS(=O)(=O)c3ccccc3)c2)c(-c2ccnc(Nc3ccc(CC4CCN(CCS(C)(=O)=O)CC4)c(F)c3)n2)s1 [Example 72]
> 1	COc1cc(N2CCN(CCF)CC2)ccc1Nc1nccc(-c2sc(C(C)C)nc2-c2cccc(NS(=O)(=O)c3c(F)cccc3F)c2)n1 [Example 79]
> 1	CC(=O)N1CCN(c2ccc(Nc3nccc(-c4sc(C(C)C)nc4-c4cccc(NS(=O)(=O)c5cc(F)ccc5F)c4)n3)cn2)CC1 [Example 96]
> 1	Cc1cc(N2CCC(N3CCCCC3)CC2)ccc1Nc1nccc(-c2sc(C(C)C)nc2-c2cccc(NS(=O)(=O)c3c(F)cccc3F)c2)n1 [Example 91]
> 1	CC(C)c1nc(-c2cccc(NS(=O)(=O)c3c(F)cccc3F)c2)c(-c2ccnc(Nc3cc(F)c(N4CCN(CCS(C)(=O)=O)CC4)cc3F)n2)s1 [Example 87]
> 1	CC(C)c1nc(-c2cccc(NS(=O)(=O)c3c(F)cccc3F)c2)c(-c2ccnc(Nc3ccc(N4CCN(CCO)CC4)nc3)n2)s1 [Example 80]
0.1 to 1	CCc1nc(-c2cccc(NS(=O)(=O)c3ccccc3)c2)c(-c2ccnc(Nc3ccc(OC)c(N4CCN(CCS(C)(=O)=O)CC4)c3)n2)s1 [Example 5, N-[3-(2-Ethyl-5-{2-[(4-(methyloxy)-3-{4-[2-(methylsulfonyl)ethyl]-1-piperazinyl}phenyl)amino]-4-pyrimidinyl}-1,3-thiazol-4-yl)phenyl]benzenesulfonamide]
> 1	CC(C)c1nc(-c2cccc(NS(=O)(=O)c3c(F)cccc3F)c2)c(-c2ccnc(Nc3ccc(N4CC[C@@H](O)C4)nc3)n2)s1 [Example 89]
> 1	CC(C)c1nc(-c2cc(F)cc(NS(=O)(=O)c3ccc(F)cc3)c2)c(-c2ccnc(Nc3ccc(N4CCOCC4)c(F)c3)n2)s1 [Example 83]
> 1	CC(=O)N1CCc2cc(Nc3nccc(-c4sc(C(C)C)nc4-c4cccc(NS(=O)(=O)c5ccccc5)c4)n3)ccc21 [Example 71]
> 1	CC(C)c1nc(-c2cccc(NS(=O)(=O)c3c(F)cccc3F)c2)c(-c2ccnc(Nc3cccc(N4CCN(C)CC4)c3)n2)s1 [Example 81]
> 1	C=C(C)c1nc(-c2cccc(NS(=O)(=O)c3c(F)cccc3F)c2)c(-c2ccnc(Nc3ccc(N4CCN(CCF)CC4)c(F)c3)n2)s1 [Example 93]
> 1	CC(C)c1nc(-c2ccc(F)c(NS(=O)(=O)c3c(F)cccc3F)c2)c(-c2ccnc(Nc3ccc(N4CCN(CCS(C)(=O)=O)CC4)c(F)c3)n2)s1 [Example 95]
> 1	CC(C)c1nc(-c2cccc(NS(=O)(=O)c3ccccc3)c2)c(-c2ccnc(Nc3ccc(F)c(N4CCN(CCS(C)(=O)=O)CC4)c3)n2)s1 [Example 73]
> 1	CC(C)c1nc(-c2cccc(NS(=O)(=O)c3ccccc3)c2)c(-c2ccnc(Nc3ccc(N4CCN(CCS(C)(=O)=O)CC4)c(F)c3F)n2)s1 [Example 74]
